Key:
[1] = Analysis by the general solubility equation (GSE): logP and melting point; type: physicochemical; details: Mp >200 °C, moderate lipophilicity
Excerpt: The general solubility equation (GSE) developed by Jain et al. provides a quantitative relationship between the three parameters: log Sw = 0.5 − 0.01(Mp − 25) − log P(1)
Starting from the general solubility equation, the poorly soluble drugs were sub-classified by the group of Bergström et al. in two types of molecules: “grease ball” and “brick dust” molecules. […] These compounds cannot form bonds with water molecules, and therefore their solubility is limited by the solvation process. By contrast, “brick dust” molecules are usually compounds with rather rigid and flat molecules with a high melting point (>190 °C) and moderate lipophilicity. Their solubility is being solid-state-limited being mainly restricted by the inability of the compound to dissociate from the crystal lattice and can generally be improved by different methods involving a disruption of the stable crystal lattice.

NCI 60 cancer lines = system: NCI 60 cancer lines; set-up: method as in PMID 20728965; details: cited from earlier work
[2] = the 43 lines with logCI50 under −4

Row | type of poorly soluble molecule (grease ball / brick dust) [1] | Compound | number of the NCI 60 cancer lines with logCI50 under −4 (NCI 60 cancer lines) | logCI50 average (NCI 60 cancer lines; [2]) | logCI50 values (range) (NCI 60 cancer lines; [2])
1 | brick dust | Cc1ccc(C(=O)NC(=S)Nc2cc(C)[nH]n2)cc1 [BM2] |  |  | 
2 | brick dust | Cc1ccc(C(=O)NC(=S)Nc2cc(C)nn2-c2ccccc2)cc1 [BM5] |  |  | 

More lines, now with the values behind:

Row | Compound | type of poorly soluble molecule (grease ball / brick dust) [1] | number of the NCI 60 cancer lines with logCI50 under −4 (NCI 60 cancer lines) | logCI50 average (NCI 60 cancer lines; [2]) | logCI50 values (range) (NCI 60 cancer lines; [2])
3 | Cc1cc(NC(=S)NC(=O)c2ccccc2)n[nH]1 [BT2] | brick dust |  |  | 
4 | Cc1cc(NC(=S)NC(=O)c2ccc(Cl)cc2)n[nH]1 [BC2] | brick dust |  |  | 
5 | O=C(NC(=S)Nc1cc(-c2ccc(Br)cc2)n[nH]1)c1ccccc1 [N-benzoyl-N'-[3-(4-bromophenyl)-1H-pyrazol-5-yl]-thiourea] |  | 43 | −5.02 | −4.12 to −5.75

From PMC6271227, “Biopharmaceutical Profiling of New Antitumor Pyrazole Derivatives” (Molecules, 2014)
